The values below come from US6716822B2, “Therapeutic agent for ischemia which inhibits apoptosis under ischemic condition” (priority 2000, dated 2004).

As a reminder, the LD50 is the dose expected to kill half of the subjects tested. A high value points to a less toxic substance.

Data set [1] in a line: Acute toxicity test, subcutaneous injection. The note with it: mouse, in vivo, sc, male C57BL/6 mice, dead mice counted through 1-7 days. From the text: All antibiotics used in the present invention, except for an aminoglycoside antibiotic of geneticin, were not subject to acute toxicity tests since they have been clinically approved for their safety. In case of geneticin, after subcutaneously injecting geneticin into male C57BL/6 mice, dead mice were counted through 1-7 days.

A further data set deals with Sprague-Dawley rats. Briefly: Effect of antibiotics on ischemic cells: rat left anterior descending artery ligature, infarct/ischemic area by Evans blue/TTC staining. The note with it: 45 mg/kg peritoneally, LAD ligature 2 hours. It is filed as in vivo.

Turning to `CN[C@@H]1[C@@H](O)[C@@H](O[C@@H]2[C@@H](O)[C@H](O[C@H]3O[C@H]([C@@H](C)O)[C@@H](O)[C@H](O)[C@H]3N)[C@@H](N)C[C@H]2N)OC[C@]1(C)O` [geneticin], in data set [1], the LD50 was about 3800 mg/kg. In addition, in the data set on Sprague-Dawley rats, the “AR/LV (percentage of ischemic area per cross-sectional area of heart)” value is on record as 40.0 ± 4.1%; the “IS/(IS + AR) (percentage of infarct area per sum of infarct and ischemic area)” value came to 24.6 ± 2.1%; the “IS/LV (percentage of infarct area per cross-sectional area of heart)” value turned out to be 12.5 ± 1.8%.

Take `C[C@H]1c2cccc(O)c2C(=O)C2=C(O)[C@]3(O)C(=O)C(C(N)=O)=C(O)[C@@H](N(C)C)[C@@H]3[C@@H](O)[C@@H]21` [doxycycline]: in the data set on Sprague-Dawley rats, the “AR/LV (percentage of ischemic area per cross-sectional area of heart)” value was determined as 41.8 ± 4.3%; the “IS/(IS + AR) (percentage of infarct area per sum of infarct and ischemic area)” value was 29.3 ± 4.2%; the “IS/LV (percentage of infarct area per cross-sectional area of heart)” value was found to be 16.9 ± 2.5%.
